Source: PMC5716993, “The interdomain flexible linker of the polypeptide GalNAc transferases dictates their long-range glycosylation preferences” (Nature Communications, 2017)
“Also recorded” adds a separate entry of the source.

Columns and labels:
Type in all cases: biochemical
[1] = target: T1, GalNAc-T2 (Homo sapiens, UniProt Q10471); experiment: Transferase assay / Michaelis-Menten kinetics of GalNAc-T2; details: for Vmax / Km: GalNAc-T2 (0.02 µM), pH 6.5 cacodylate, 37 °C, 0.25 mM UDP-[3H]-GalNAc, Michaelis-Menten fit (1/y weighting), ± standard deviation; for Vmax: 10 mM MnCl2, scintillation counting; for Catalytic efficiency (Vmax/Km): errors estimated from the largest percent error of Vmax or Km
T1 construct: the previous reported template pPICZαAgalnact2 (K75-Q571); made in house; host or cells: Pichia pastoris (pPICZαA)
Procedure: (§1) Specific activity determinations: GalNAc-T glycosylation reactions against (glyco)peptides 1–3 were performed with 75 mM sodium cacodylate, pH 6.5, 1 mM 2-mercaptoethanol, 10 mM MnCl2, 0.25 mM [^3H]-radiolabeled UDP-GalNAc (~6 × 10^8 DPM/µmole, American Radiolabeled Chemicals Inc.), and 1.4 mM (~1.25 mg/ml) of (glyco)peptide (from 4 mM stock in 1 mM TRIS, pH ~7) and varying concentrations (0.01 to 0.5 µM) of transferase (determined by OD280), giving a final reaction volumes of 20 µl in 100 µl capped Eppendorf tubes. Reactions were incubated at 37 °C in a thermostated microplate shaker (Taitec Microincubator M-36) and quenched at the appropriate reaction time by the addition of 20 µl of 250 mM EDTA and placed on ice prior to final workup. Typically, for each transferase, glycosylation reactions were performed at the same time with all three (glyco)peptide substrates (including a no peptide control) using the same batch of transferase and the same UDP-[^3H]-GalNAc stock. Before performing time course experiments, the relative activity of each transferase was determined by trial and error against all three peptides to determine the optimal transferase concentration or incubation time that gave no more than 10% peptide glycosylation against the best substrate. Final time course experiments typically consisted of incubation times of 10, 20, and 30, or 30, 60, and 90 or 120 min (depending on activity) and were performed at least twice. Most transferases were also characterized at two different enzyme concentrations (0.01–0.03 and 0.2–0.5 µM) and the results combined. After quenching the reaction and diluting to 4 ml, free UDP and non-hydrolyzed UDP-GalNAc were removed by passage over a Dowex 1 × 8 anion exchange resin (~3 ml column). Total UDP-[^3H]-GalNAc utilization (transfer to peptide substrate and transfer to water, i.e, hydrolysis) was determined by difference after scintillation counting (Beckman LS5801 scintillation counter) 1/20 of the sample before and after passage over Dowex 1 × 8. The extent of [^3H]-GalNAc transfer to peptide and the extent of hydrolysis was determined by Sephadex G10 gel filtration analysis, typically for the longest reaction time point, as previously described. Example gel filtration chromatograms are given in Supplementary Fig. 12. Significant hydrolysis was only observed for GalNAc-T4, which was corrected for in determining its specific activity. Specific activity was obtained by calculating at each individual data time point (of the combined time course plots, Fig. 4b), an individual-specific activity, which was then averaged to obtain the overall average specific activity (and standard deviation). Specific activity is reported as nmol of glycopeptide product formed per min, per pmol of enzyme. Substrate activity ratios (i.e., substrate ratios 2/1, 3/1, and 3/2) were also obtained at each individual time point and averaged (with standard deviation). […] Note that the Microsoft Excel least squares fitting function LINEST was used to obtain the linear plots shown in Fig. 4b while fixing the y intercept to zero. Note that the specific activity calculated from the least square slope differed slightly (less than 10%) from that determined from the average of the individual time points.
(§2) Detailed enzyme kinetics on GalNAc-T4, GalNAc-T2, the GalNAc-T2 triple mutant and GalNAc-T2 chimera 3: Glycosylation reactions were performed as described above using a fixed enzyme concentration (0.06 µM for GalNAc-T4, and 0.02 µM for GalNAc-T2 and its linker constructs) with varying peptide concentrations (typically 45, 90, 180, 350, 700, 1400, and 2000 μM). Incubation times (10–90 min) were chosen such that no more than 30% of the UDP-GalNAc donor was depleted while typically giving less than 10% peptide glycosylation, after correction for UDP-GalNAc hydrolysis described above. Specific activities were obtained from one to two individual incubation time points performed in two–three separate experiments. […]

[2] = target: T2, GalNAc-T2-t4Flexible linker (Chimera 3) (Homo sapiens, UniProt Q10471, A446W/D441E/D444P/E436N/F447H/H442D/I445G/Q443R/R438H); experiment: Transferase assay / Michaelis-Menten kinetics of GalNAc-T2 chimera 3; details: for Vmax / Km: Chimera 3 (0.02 µM), pH 6.5 cacodylate, 37 °C, 0.25 mM UDP-[3H]-GalNAc, Michaelis-Menten fit, ± standard deviation; for Vmax: 10 mM MnCl2; for Catalytic efficiency (Vmax/Km): Chimera 3, errors estimated from the largest percent error of Vmax or Km
T2 construct: made in house; host or cells: Pichia pastoris SMD1168 (pPICZαA)
Procedure: as §1, §2

[3] = system: GalNAc-T2 chimera 1 and 2; experiment: Specific activity of GalNAc-T2 chimera 1 and 2; details: 1.4 mM, in words
Procedure: (§3) Specific activity determinations: GalNAc-T glycosylation reactions against (glyco)peptides 1–3 were performed with 75 mM sodium cacodylate, pH 6.5, 1 mM 2-mercaptoethanol, 10 mM MnCl2, 0.25 mM [^3H]-radiolabeled UDP-GalNAc (~6 × 10^8 DPM/µmole, American Radiolabeled Chemicals Inc.), and 1.4 mM (~1.25 mg/ml) of (glyco)peptide (from 4 mM stock in 1 mM TRIS, pH ~7) and varying concentrations (0.01 to 0.5 µM) of transferase (determined by OD280), giving a final reaction volumes of 20 µl in 100 µl capped Eppendorf tubes. […] Before performing time course experiments, the relative activity of each transferase was determined by trial and error against all three peptides to determine the optimal transferase concentration or incubation time that gave no more than 10% peptide glycosylation against the best substrate. […] Total UDP-[^3H]-GalNAc utilization (transfer to peptide substrate and transfer to water, i.e, hydrolysis) was determined by difference after scintillation counting (Beckman LS5801 scintillation counter) 1/20 of the sample before and after passage over Dowex 1 × 8. The extent of [^3H]-GalNAc transfer to peptide and the extent of hydrolysis was determined by Sephadex G10 gel filtration analysis, typically for the longest reaction time point, as previously described. […]

[4] = target: T3, GalNAc-T4 (Homo sapiens, UniProt Q8N4A0); experiment: Transferase assay / Michaelis-Menten kinetics of GalNAc-T4; details: for Activity of GalNAc-T4 on peptide / glycosylation: over a range of peptide concentrations, in words; for Activity of GalNAc-T4 on peptide / glycosylation / Catalytic efficiency (Vmax/Km): GalNAc-T4
T3 construct: amino acid residues 36–578 of the human GalNAc-T4; histidine tag (C); made in house; host or cells: Pichia pastoris SMD1168 (pPICZαA, secreted)
Procedure: as §1, §2

[5] = target: T4, GalNAc-T2 (triple mutant, R438A-D444A-F447A) (Homo sapiens, UniProt Q10471, D444A/F447A/R438A); experiment: Transferase assay / Michaelis-Menten kinetics of GalNAc-T2 triple mutant; details: for Vmax / Km: Triple Mutant (0.02 µM), pH 6.5 cacodylate, 37 °C, 0.25 mM UDP-[3H]-GalNAc, Michaelis-Menten fit, ± standard deviation; for Vmax: 10 mM MnCl2; for Catalytic efficiency (Vmax/Km): Triple Mutant, errors estimated from the largest percent error of Vmax or Km
T4 construct: the previous reported template pPICZαAgalnact2 (K75-Q571); made in house; host or cells: Pichia pastoris SMD1168 (pPICZαA)
Procedure: as §1, §2

[6] = system: GalNAc-T2 chimeras 1–3; experiment: Specific activity / glycosylation preference of GalNAc-T2 chimeras 1-3; details: in words
Procedure: as §3

T3 sequence (Q8N4A0 36-578): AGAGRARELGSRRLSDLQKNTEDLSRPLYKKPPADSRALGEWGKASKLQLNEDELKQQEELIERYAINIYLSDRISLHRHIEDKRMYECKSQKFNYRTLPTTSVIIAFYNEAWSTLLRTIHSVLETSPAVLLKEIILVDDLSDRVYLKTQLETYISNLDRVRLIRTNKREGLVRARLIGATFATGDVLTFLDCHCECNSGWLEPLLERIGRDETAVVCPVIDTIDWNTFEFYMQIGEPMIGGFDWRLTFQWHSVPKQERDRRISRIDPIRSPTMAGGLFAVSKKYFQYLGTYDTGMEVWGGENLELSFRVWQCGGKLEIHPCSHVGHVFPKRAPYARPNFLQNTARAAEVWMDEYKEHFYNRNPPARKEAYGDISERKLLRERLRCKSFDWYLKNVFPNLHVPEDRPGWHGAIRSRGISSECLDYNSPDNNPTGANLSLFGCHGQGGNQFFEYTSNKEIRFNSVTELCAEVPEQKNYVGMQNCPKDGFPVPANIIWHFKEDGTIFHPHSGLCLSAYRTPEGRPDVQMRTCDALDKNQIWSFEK
T1 sequence (Q10471 75-571): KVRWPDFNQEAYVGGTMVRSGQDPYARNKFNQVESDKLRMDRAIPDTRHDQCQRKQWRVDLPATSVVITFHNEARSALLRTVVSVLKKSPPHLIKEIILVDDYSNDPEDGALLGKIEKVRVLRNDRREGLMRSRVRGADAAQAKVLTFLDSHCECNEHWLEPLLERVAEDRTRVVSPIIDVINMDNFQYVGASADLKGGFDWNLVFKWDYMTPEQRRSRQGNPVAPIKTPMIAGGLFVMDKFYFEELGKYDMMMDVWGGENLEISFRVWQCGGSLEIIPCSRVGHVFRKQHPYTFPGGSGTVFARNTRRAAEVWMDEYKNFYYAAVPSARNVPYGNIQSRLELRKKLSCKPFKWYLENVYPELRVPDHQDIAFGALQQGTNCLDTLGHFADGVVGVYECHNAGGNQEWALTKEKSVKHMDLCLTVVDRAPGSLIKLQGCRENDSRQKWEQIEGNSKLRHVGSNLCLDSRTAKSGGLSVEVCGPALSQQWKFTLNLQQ
T2 sequence (Q10471 75-571 E436N/R438H/D441E/H442D/Q443R/D444P/I445G/A446W/F447H): as the sequence (Q10471 75-571) above, with E362N, R364H, D367E, H368D, Q369R, D370P, I371G, A372W, F373H counted along it
T4 sequence (Q10471 75-571 R438A/D444A/F447A): as the sequence (Q10471 75-571) above, with R364A, D370A, F373A counted along it

Substance | Vmax [1] | Km [1] [µM] | Catalytic efficiency (Vmax/Km) ([1]; GalNAc-T2) [nmol/min] | substrate preference of GalNAc-T2, higher substrate concentrations ([1]; in words) | Vmax [2] | Km [2] [µM] | Catalytic efficiency (Vmax/Km) [2] [nmol/min] | Activity of GalNAc-T4 on peptide / glycosylation [4] | Vmax [5] | Km [5] [µM] | Catalytic efficiency (Vmax/Km) [5] [nmol/min] | other results
AGAGTTPGPGAGAT*GA [Peptide 2, monoglycopeptide …*GA, T* denotes the Thr-O-GalNAc moiety] | 3.12 ± 0.07 mM/(nmole*min) | 180 ± 10 | 17.0 ± 2.3 | nearly equal preferences | 1.35 ± 0.11 mM/(nmole*min) | 700 ± 140 | 1.93 ± 0.8 | imperceptibly glycosylated; also recorded: too low to determine their kinetic constants; also recorded: largely unglycosylated | 1.80 ± 0.06 mM/(nmole*min) | 400 ± 40 | 4.54 ± 0.9 | increase in catalytic efficiency for monoglycopeptide 2 over monoglycopeptide 3 ([1]; GalNAc-T2, ratio 2 over 3): over threefold; Km of monoglycopeptide 2 compared to monoglycopeptide 3 ([1]; GalNAc-T2, ratio, in words): ~ fourfold lower; substrate preference of GalNAc-T2, low substrate concentrations ([1]; low substrate concentrations, in words): high preference for monoglycopeptide 2 at low substrate concentrations; change in kinetic parameters (Vmax, Km) ([2]; chimera 3, in words): changes in Vmax and Km; specific activity against monoglycopeptide 2, change [3]: decrease in the observed specific activity; change in kinetic parameters against monoglycopeptide 2 ([5]; triple mutant, in words): decrease in Vmax and increase in Km
GAT*GAGAGAGTTPGPG [Peptide 3, monoglycopeptide GAT*…, T* denotes the Thr-O-GalNAc moiety] | 3.79 ± 0.34 mM/(nmole*min) | 750 ± 130 | 5.03 ± 1.8 | nearly equal preferences | 3.69 ± 0.29 mM/(nmole*min) | 990 ± 160 | 3.73 ± 1.2 | glycosylated selectively | 2.82 ± 0.10 mM/(nmole*min) | 570 ± 50 | 4.94 ± 0.9 | Catalytic efficiency (Vmax/Km) ([4]; Fig. 2a and text): ~ 75 (nmole min)^−1; Km ([4]; Fig. 2a and text, GalNAc-T4 (0.06 µM), Michaelis-Menten fit): ~40 µM; Vmax ([4]; Supplementary Table 2, GalNAc-T4 (0.06 µM), pH 6.5 cacodylate, 37 °C, 0.25 mM UDP-[3H]-GalNAc, 10 mM MnCl2, corrected for UDP-GalNAc hydrolysis, ± standard deviation): 3.09± 0.25 mM/(nmole*min); Km ([4]; Supplementary Table 2, GalNAc-T4 (0.06 µM), pH 6.5 cacodylate, 37 °C, 0.25 mM UDP-[3H]-GalNAc, ± standard deviation): 41 ± 18 µM; Catalytic efficiency (Vmax/Km) ([4]; Supplementary Table 2, errors estimated from the largest percent error of Vmax or Km): 75.2 ± 34 nmol/min; specific activity and kinetic parameters against monoglycopeptide 3, change [6]: remained relative constant
